{"source": "paper PMC3770298", "about": "(ACS medicinal chemistry letters, 2013)", "key": {"RORγ": {"biological_target": "T1, RORγ (Mus musculus, UniProt P51450)", "T1 sequence (P51450 1-516)": "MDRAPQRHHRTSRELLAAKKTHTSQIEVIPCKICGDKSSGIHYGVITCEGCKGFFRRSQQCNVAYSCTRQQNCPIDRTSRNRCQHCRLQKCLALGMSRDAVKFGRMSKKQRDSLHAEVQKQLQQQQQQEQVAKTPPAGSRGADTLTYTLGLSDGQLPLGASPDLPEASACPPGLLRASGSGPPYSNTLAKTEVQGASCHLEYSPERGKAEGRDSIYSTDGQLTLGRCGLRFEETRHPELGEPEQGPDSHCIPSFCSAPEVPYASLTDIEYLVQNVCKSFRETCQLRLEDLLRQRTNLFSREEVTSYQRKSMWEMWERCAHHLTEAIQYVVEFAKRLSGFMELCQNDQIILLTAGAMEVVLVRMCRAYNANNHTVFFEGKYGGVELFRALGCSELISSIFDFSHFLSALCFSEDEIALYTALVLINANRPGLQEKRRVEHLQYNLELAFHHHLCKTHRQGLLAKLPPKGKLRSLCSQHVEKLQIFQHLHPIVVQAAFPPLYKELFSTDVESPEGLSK", "experiment": "cell-based RORγ gene reporter assay", "settings": "for IC50 (μM) (RORγ): Table 1, region A, mean of four replicates from two independent experiments"}, "[1]": {"biological_target": "T2, RORγ ligand binding domain (LBD) (Homo sapiens, UniProt P51449)", "T2 sequence (P51449 269-508 limits assumed)": "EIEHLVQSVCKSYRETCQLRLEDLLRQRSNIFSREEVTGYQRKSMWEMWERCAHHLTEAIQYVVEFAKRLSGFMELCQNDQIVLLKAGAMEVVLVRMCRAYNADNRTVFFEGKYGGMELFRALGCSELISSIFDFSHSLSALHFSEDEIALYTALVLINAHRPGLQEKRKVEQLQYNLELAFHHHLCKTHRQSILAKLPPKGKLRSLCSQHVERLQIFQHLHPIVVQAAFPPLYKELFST", "experiment": "fluoroprobe", "settings": "competition assay"}, "VP16": {"tested_on": "VP16", "format": "cell-based", "settings": "up to 96 μM"}, "RORα": {"biological_target": "T3, RORα (Mus musculus, UniProt P51448)", "T3 sequence (P51448 1-523)": "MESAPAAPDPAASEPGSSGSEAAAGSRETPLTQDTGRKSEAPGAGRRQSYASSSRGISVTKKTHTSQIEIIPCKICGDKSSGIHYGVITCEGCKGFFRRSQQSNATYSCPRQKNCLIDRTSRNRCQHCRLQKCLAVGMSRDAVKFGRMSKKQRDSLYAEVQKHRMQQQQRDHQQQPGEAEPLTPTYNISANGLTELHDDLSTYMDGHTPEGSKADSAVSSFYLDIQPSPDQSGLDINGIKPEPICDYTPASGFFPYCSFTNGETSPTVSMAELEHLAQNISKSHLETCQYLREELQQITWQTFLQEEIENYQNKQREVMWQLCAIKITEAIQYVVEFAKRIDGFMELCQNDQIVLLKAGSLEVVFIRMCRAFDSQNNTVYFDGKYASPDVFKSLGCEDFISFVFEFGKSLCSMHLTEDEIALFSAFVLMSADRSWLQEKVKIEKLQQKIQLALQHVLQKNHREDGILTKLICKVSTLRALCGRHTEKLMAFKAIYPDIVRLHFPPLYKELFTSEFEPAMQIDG", "experiment": "RORα gene reporter assay", "format": "cell-based", "settings": "up to 96 μM"}, "[2]": {"tested_on": "mouse TH17 cell differentiation", "experiment": "mouse TH17 cell differentiation", "format": "cell-based", "settings": "read-out: inhibition of mouse TH17 cell differentiation"}, "Th1 cell differentiation": {"tested_on": "Th1 cell differentiation", "experiment": "Th1 cell differentiation", "format": "cell-based, mouse", "settings": "20 μM; data not shown"}, "DHR3": {"biological_target": "T4, DHR3 (Drosophila melanogaster, UniProt P31396)", "T4 sequence (P31396 1-487)": "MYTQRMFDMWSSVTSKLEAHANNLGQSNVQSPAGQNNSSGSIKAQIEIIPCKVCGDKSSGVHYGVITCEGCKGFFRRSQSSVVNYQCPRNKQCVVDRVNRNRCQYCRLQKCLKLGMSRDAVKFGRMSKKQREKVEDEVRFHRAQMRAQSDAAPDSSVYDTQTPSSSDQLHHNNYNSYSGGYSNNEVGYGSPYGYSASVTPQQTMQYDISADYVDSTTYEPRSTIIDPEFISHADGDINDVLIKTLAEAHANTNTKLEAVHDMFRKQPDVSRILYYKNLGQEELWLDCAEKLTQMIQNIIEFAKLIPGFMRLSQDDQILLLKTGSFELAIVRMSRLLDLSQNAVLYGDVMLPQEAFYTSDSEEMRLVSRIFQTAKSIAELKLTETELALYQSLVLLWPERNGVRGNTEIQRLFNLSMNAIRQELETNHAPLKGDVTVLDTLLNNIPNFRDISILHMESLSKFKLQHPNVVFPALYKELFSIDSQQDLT", "experiment": "DHR3 gene reporter assay", "format": "cell-based", "settings": "up to 96 μM"}}}
{"smiles": "COc1cc(O)c(C(CC(=O)N2C[C@@H](C)N[C@@H](C)C2)c2ccc3c(c2)OCO3)c(OC)c1", "note": "(stereo partly drawn) [Compound 4m]", "values": [{"measurement": "IC50 (μM) (RORγ)", "setting": "RORγ", "result": "inactive"}]}
{"smiles": "COc1cc(O)c(C(CC(=O)N2CCOCC2)c2ccc3c(c2)OCO3)c(OC)c1", "note": "(stereo not drawn) [Compound 4k]", "values": [{"measurement": "IC50 (μM) (RORγ)", "setting": "RORγ", "result": "inactive"}, {"measurement": "displacement of hydroxycholesterol from RORγ LBD", "setting": "[1]", "result": "failed to displace"}]}
{"smiles": "COc1cc(O)c(C(CC(=O)N2CCCC(C)C2)c2ccc3c(c2)OCO3)c(OC)c1", "note": "(stereo not drawn) [Compound 4a]", "values": [{"measurement": "activity in the VP16 assay", "setting": "VP16", "result": "no activity"}, {"measurement": "activity in the RORα assay", "setting": "RORα", "result": "no activity"}, {"measurement": "inhibition at 20 µM", "setting": "[2]", "result": 84, "unit": "%"}, {"measurement": "effect on Th1 cell differentiation", "setting": "Th1 cell differentiation", "result": "no effect"}, {"measurement": "activity in the DHR3 assay", "setting": "DHR3", "result": "no activity"}]}
{"smiles": "C[C@H]1O[C@@H](O[C@H]2[C@@H](O)C[C@H](O[C@H]3[C@@H](O)C[C@H](O[C@H]4CC[C@@]5(C)[C@H](CC[C@@H]6[C@@H]5C[C@@H](O)[C@]5(C)[C@@H](C7=CC(=O)OC7)CC[C@]65O)C4)O[C@@H]3C)O[C@@H]2C)C[C@H](O)[C@@H]1O", "note": "[Digoxin, reference compound]", "values": [{"measurement": "result in qHTS for RORγ antagonists", "setting": "RORγ; qHTS of 310,000 compounds with VP16 counterscreen", "result": "selective antagonists"}]}
